Source: patent publication US12612389B2, “Benzofuran-based N-acylhydrazone derivative and pharmaceutical composition comprising same” (KOREA RESEARCH INSTITUTE OF BIOSCIENCE AND BIOTECHNOLOGY, priority 2019, dated 2026)

Experiments:
HDF (human) = assay: Cytotoxicity in normal cells (MTT); type: cell-based; details: 96 h, Normal cell, 4 days
K562 = assay: Anti-proliferative activity test in cancer cells exhibiting multidrug resistance (MTT), parent line; type: cell-based; details: Homo sapiens, 96 h, 4 days
Method in brief: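 K562 and MCF7 parent lines and their multidrug-resistant K562/ADR and MCF7/ADR sublines seeded at 1-3×10^3 cells/well and exposed to compounds. Viability read by MTT; values are means of three repeats.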

CCOCCn1c(Cl)c(/C=N/NC(=O)c2cc3cc(C)ccc3o2)c2ccccc21 [Example 4, (E)-N′-[(2-chloro-1-(2-ethoxyethyl)-1H-indol-3-yl]methylene}-5-methylbenzofuran-2-carbohydrazide]
IC50 (HDF (human)): 27 ± 7.89 µM | IC50 (K562): 350 nM
